From patent US12448373B2, “Azetidinyl-acetamides as CXCR7 inhibitors” (CHEMOCENTRYX, INC., priority 2021, dated 2025)

target: T1, CXCR7 (Homo sapiens, UniProt P25106); test: CXCR7 β-arrestin recruitment assay in CHO-CXCR7 cells (ProLink/EA β-galactosidase complementation), induced by human SDF-1a; assay type: cell-based; details: assay buffer, SDF-1a at EC50 concentration
T1 construct: expressed in transfected cells; host or cells: CHO cells (CHO-CXCR7), transgenes maintained with Hygromycin B and G418
T1 sequence (P25106 whole entry): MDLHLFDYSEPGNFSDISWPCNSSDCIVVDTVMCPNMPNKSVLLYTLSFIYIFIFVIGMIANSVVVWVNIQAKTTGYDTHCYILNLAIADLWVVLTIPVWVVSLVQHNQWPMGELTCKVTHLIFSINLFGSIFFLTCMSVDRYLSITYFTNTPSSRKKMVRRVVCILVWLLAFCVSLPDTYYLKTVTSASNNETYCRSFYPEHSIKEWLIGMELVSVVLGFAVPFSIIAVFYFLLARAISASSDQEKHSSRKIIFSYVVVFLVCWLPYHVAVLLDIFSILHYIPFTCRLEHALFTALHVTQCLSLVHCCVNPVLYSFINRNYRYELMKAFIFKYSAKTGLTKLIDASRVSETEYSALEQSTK
Protocol: CXCR7 is fused in frame with a small enzyme donor fragment ProLink and co-expressed in CHO cells stably expressing a fusion protein of β-arrestin and the larger, N-terminal deletion mutant of β-galactosidase (called enzyme acceptor or EA). Activation of the CXCR7 stimulates binding of β-arrestin to the ProLink-tagged CXCR7 and forces complementation of the two enzyme fragments, resulting in the formation of an active β-galactosidase enzyme. The β-galactosidase enzyme activity is measured with a substrate that generates fluorescence.
CHO-CXCR7 cells (0.22×10^6/mL) were cultured in growth medium (Ham's F-12 medium with 10% fetal bovine serum (FBS)), Hygromycin B (200 ug/mL) and G418 (250 ug/mL) were used to maintain the transgenes. The day before the assay, the cells were detached from culture dishes with 0.25% trypsin-EDTA (Corning, Catalog No. 25-053-CI), plated into 96 well plate (2.2×10^5 cells/mL, 100 μL/well) and incubated overnight at 37° C. with 5% CO2. On the day of the assay, cell culture medium was removed and 100 uL of assay buffer (PBS or FBS) was added to each well. 1 μL of compound that were serially diluted in DMSO was added to each well. 5 μL of human SDF-la (Pepro Tech, Catalog No. 300-28A, at EC50 concentration pre-determined on the same day) was then added and mixed to induce CXCR7-mediated β-arrestin recruitment. The plates were incubated for 1.5 hours at 37° C. The assay buffer was removed, 100 μL substrate solution was added and the reaction was carried out at 37° C. for 30 minutes. The substrate solution was prepared by mixing 100 mL Phosphate Buffer (1M, Sigma, Catalog No. P3619-1GA), 100 mL 10% Triton X 100 (Sigma, Catalog No. T8787.), 5 mL MgCl2 (1M, Sigma, Catalog No. M1028), 1.5 mL, β-mercaptoethanol (Gibco, Catalog No. 21985-023.). 3-carboxyumbelliferyl β-D-galactopyranoside (ThermoFisher Scientific, Catalo No. F2905) was added at 0.4 mM right before use. The reaction was then stopped by adding 50 μL of Stop Solution (2.1% w/v Na2CO3) to each well. Fluorescence intensity was measured with a FlexStation 3 microplate reader (Molecular Devices) with the following setting—excitation: 360 nm, emission: 465 nm, manual Gain: 55. IC50 values were calculated with GraphPad Prism using 3 parameter nonlinear regression.

SMILES | IC50 [nM]
O=C(CC1(NC(=O)c2cc(-c3ccc(F)cc3F)on2)CN(C2CCCCC2)C1)N[C@H](C(=O)O)c1ccccc1 [Example 1.283] | 1000 to 20000
Cc1cc(C)nc(C(C)(C)NC(=O)CC2(NC(=O)c3cc(-c4ccc(F)cc4F)on3)CN(C3CC(C)(C)OC(C)(C)C3)C2)n1 [Example 1.355] | < 5
CC(C)(O)CN1CC(CC(=O)NC(C)(C)c2ccc(F)cc2F)(NC(=O)c2cc(-c3ccc(F)cc3F)on2)C1 [Example 1.264] | 1000 to 20000
Cc1cc(Cl)cc(C(C)(C)NC(=O)CC2(NC(=O)c3cc(-c4ccc(F)cc4F)on3)CN([C@H]3CC[C@](C)(O)CC3)C2)n1 [Example 1.003] | < 5
CC(C)(NC(=O)CC1(NC(=O)c2cc(-c3ccc(F)cc3F)on2)CN([C@H]2CC[C@@](C)(O)CC2)C1)c1cc(Cl)ccc1Cl [Example 1.085] | < 5
C[C@]1(O)CC[C@@H](N2CC(CC(=O)NCc3c[nH]c4ccccc34)(NC(=O)c3cc(-c4ccc(F)cc4F)on3)C2)CC1 [Example 1.278] | 1000 to 20000
O=C(CC1(NC(=O)c2cc(-c3ccc(F)cc3F)on2)CN(CC2CC2)C1)NC1(c2ccccc2)CC1 [Example 1.321] | 100 to 1000
CC(C)(NC(=O)CC1(NC(=O)c2cc(-c3ccc(F)cc3F)on2)CN([C@H]2CC[C@](C)(O)CC2)C1)c1ccccc1C(F)(F)F [Example 1.291] | < 5
CC(C)(NC(=O)CC1(NC(=O)c2cnc(-c3ccc(F)cc3F)s2)CN([C@H]2CC[C@](C)(O)CC2)C1)c1cccc(Cl)c1 [Example 1.069] | 5 to 100
Cc1cc(C(C)(C)NC(=O)CC2(NC(=O)c3cc(-c4ccc(F)cc4F)on3)CN(CC3(C)COC3)C2)ccn1 [Example 1.151] | 5 to 100
CC1(CN2CC(CC(=O)NC(C)(C)c3cccc(Cl)c3)(NC(=O)c3cc(-c4ccc(F)cc4F)on3)C2)COC1 [Example 1.216] | < 5
CC1(CN2CC(CC(=O)NC(C)(C)c3cccc(C(F)(F)F)n3)(NC(=O)c3cc(-c4ccc(F)cc4F)on3)C2)COC1 [Example 1.130] | 1000 to 20000
Cc1ccc(F)c(C(C)(C)NC(=O)CC2(NC(=O)c3cc(-c4ccc(F)cc4F)on3)CN([C@H]3CC[C@](C)(O)CC3)C2)c1 [Example 1.185] | < 5
COc1ccc(C(C)(C)NC(=O)CC2(NC(=O)c3cc(-c4ccc(F)cc4F)on3)CN([C@H]3CC[C@](C)(O)CC3)C2)cc1 [Example 1.244] | 1000 to 20000
CC(C)(NC(=O)CC1(NC(=O)c2cc(-c3ccc(F)cc3F)on2)CN(C2CCC3(CC2)COC3)C1)c1ccc(F)cc1F [Example 1.254] | 100 to 1000
CC(C)(NC(=O)CC1(NC(=O)c2cc(-c3ccc(F)cc3)on2)CN([C@H]2CC[C@](C)(O)CC2)C1)c1ccccc1 [Example 1.091] | 5 to 100
Cc1ccc(C(C)(C)NC(=O)CC2(NC(=O)c3cc(-c4ccc(F)cc4F)on3)CN([C@H]3CC[C@@](C)(O)CC3)C2)cc1 [Example 1.242] | 100 to 1000
C[C@@H](NC(=O)CC1(NC(=O)c2cc(-c3ccc(F)cc3F)on2)CN(CC2CC2)C1)c1ccccn1 [Example 1.323] | 100 to 1000
Cc1cccc(C(C)(C)NC(=O)CC2(NC(=O)c3nnc(-c4ccc(F)cc4F)s3)CN(CC(C)C)C2)n1 [Example 1.027] | 5 to 100
Cc1cccc(C(C)(C)NC(=O)CC2(NC(=O)c3cc(-c4ccc(F)cc4F)on3)CN(CC(C)(C)O)C2)n1 [Example 1.240] | 5 to 100
CC(C)(NC(=O)CC1(NC(=O)c2csc(-c3ccc(F)cc3F)n2)CN([C@H]2CC[C@@](C)(O)CC2)C1)c1cccc(Cl)c1 [Example 1.050] | 1000 to 20000
CCc1cc(C(C)(C)NC(=O)CC2(NC(=O)c3cc(-c4ccc(F)cc4F)on3)CN([C@H]3CC[C@@](C)(O)CC3)C2)ccn1 [Example 1.148] | 5 to 100
Cc1ccc(C(C)(C)NC(=O)CC2(NC(=O)c3cc(-c4ccc(F)cc4F)on3)CN(C3CCCCC3)C2)cn1 [Example 1.281] | 5 to 100

Next, values leading:

IC50 [nM] | SMILES
100 to 1000 | CC(C)(NC(=O)CC1(NC(=O)c2cc(-c3ccc(F)cc3F)on2)CN(CC2CCOC2)C1)c1ccccn1 (centres unmarked) [Example 1.223]
100 to 1000 | CC(C)(NC(=O)CC1(NC(=O)c2cc(-c3ccc(F)cc3F)sn2)CN([C@H]2CC[C@](C)(O)CC2)C1)c1cccc(Cl)c1 [Example 1.044]
5 to 100 | CC(C)(NC(=O)CC1(NC(=O)c2nnc(-c3ccc(F)cc3F)s2)CN([C@H]2CC[C@](C)(O)CC2)C1)c1cc(Cl)cc(C#N)c1 [Example 1.345]
5 to 100 | CC(C)(NC(=O)CC1(NC(=O)c2cc(-c3ccc(F)cc3F)on2)CN([C@H]2CC[C@](C)(O)CC2)C1)c1cnccn1 [Example 1.158]
< 5 | CC(C)(NC(=O)CC1(NC(=O)c2cc(-c3ccc(F)cc3F)on2)CN([C@H]2CCCCC2(C)C)C1)c1ccccn1 [Example 1.275]
5 to 100 | CC(C)(NC(=O)CC1(NC(=O)c2cn(-c3ccc(F)cc3F)nn2)CN([C@H]2CC[C@](C)(O)CC2)C1)c1cccc(Cl)c1 [Example 1.067]
1000 to 20000 | CC(C)(NC(=O)CC1(NC(=O)c2cc(-c3ccc(F)cc3F)on2)CN([C@H]2CC[C@](C)(O)CC2)C1)c1cccc2[nH]ncc12 [Example 1.087]
5 to 100 | CC(C)(NC(=O)CC1(NC(=O)c2nnc(-c3ccc(F)cc3F)s2)CN(CC2CC2)C1)c1cccc(Cl)c1 [Example 1.038]
5 to 100 | Cc1cc(C(C)(C)NC(=O)CC2(NC(=O)c3cc(-c4ccc(F)cc4F)on3)CN(C3CCC(C)(O)CC3)C2)cc(C)n1 (centres unmarked) [Example 1.111]
1000 to 20000 | C[C@H](NC(=O)CC1(NC(=O)c2cc(-c3ccc(F)cc3F)on2)CN(CC2CC2)C1)c1ccccn1 [Example 1.324]
< 5 | C[C@]1(O)CC[C@H](N2CC(CC(=O)NCc3cccc4[nH]ccc34)(NC(=O)c3cc(-c4ccc(F)cc4F)on3)C2)CC1 [Example 1.100]
5 to 100 | Cc1cc(C(C)(C)NC(=O)CC2(NC(=O)c3nnc(-c4ccc(F)cc4F)s3)CN([C@H]3CC[C@](C)(O)CC3)C2)ccn1 [Example 1.335]
< 5 | Cc1cc(Cl)cc(C(C)(C)NC(=O)CC2(NC(=O)c3cc(-c4ccc(F)cc4F)on3)CN(C3CCOC(C)(C)C3)C2)n1 (centres unmarked) [Example 1.358]
5 to 100 | CCOc1cccc(C(C)(C)NC(=O)CC2(NC(=O)c3cc(-c4ccc(F)cc4F)on3)CN([C@H]3CC[C@](C)(O)CC3)C2)c1 [Example 1.187]
5 to 100 | CC(C)(O)CN1CC(CC(=O)NC(C)(C)c2cc(Cl)ccc2F)(NC(=O)c2cc(-c3ccc(F)cc3F)on2)C1 [Example 1.134]
< 5 | CC(C)(NC(=O)CC1(NC(=O)c2cc(-c3ccc(F)cc3F)on2)CN([C@H]2CC[C@](C)(O)CC2)C1)c1cccc(Cl)c1 [Example 1.221]
5 to 100 | Cc1cc(C#N)cc(C(C)(C)NC(=O)CC2(NC(=O)c3nnc(-c4ccc(F)cc4F)s3)CN([C@H]3CC[C@](C)(O)CC3)C2)n1 [Example 1.352]
5 to 100 | Cc1cc(C(C)(C)NC(=O)CC2(NC(=O)c3cn(-c4ccc(F)cc4F)nn3)CN(C3CCCCC3)C2)ccn1 [Example 1.074]
< 5 | CC(C)(NC(=O)CC1(NC(=O)c2nnc(-c3ccc(F)cc3F)s2)CN([C@H]2CC[C@@](C)(O)CC2)C1)c1cccc(Cl)c1 [Example 1.064]
5 to 100 | CC(C)(O)CN1CC(CC(=O)NC(C)(C)c2ccccn2)(NC(=O)c2cc(-c3ccc(F)cc3F)on2)C1 [Example 1.255]
100 to 1000 | CC(C)(NC(=O)CC1(NC(=O)c2cc(-c3ccc(F)cc3F)sn2)CN([C@H]2CC[C@@](C)(O)CC2)C1)c1cccc(Cl)c1 [Example 1.043]
5 to 100 | CC(C)(O)CCN1CC(CC(=O)NC(C)(C)c2cccc(F)c2)(NC(=O)c2cc(-c3ccc(F)cc3F)on2)C1 [Example 1.229]
100 to 1000 | CC(C)(O)CN1CC(CC(=O)NC(C)(C)c2ccc(Cl)cc2)(NC(=O)c2cc(-c3ccc(F)cc3F)on2)C1 [Example 1.138]
5 to 100 | COc1cccc(C(C)(C)NC(=O)CC2(NC(=O)c3cc(-c4ccc(F)cc4F)on3)CN([C@H]3CC[C@@](C)(O)CC3)C2)c1 [Example 1.238]
< 5 | Cc1ccc(F)c(C(C)(C)NC(=O)CC2(NC(=O)c3nnc(-c4ccc(F)cc4F)s3)CN([C@H]3CC[C@](C)(O)CC3)C2)n1 [Example 1.005]
5 to 100 | CC(C)CN1CC(CC(=O)NC(C)(C)c2cncc(Cl)c2)(NC(=O)c2cc(-c3ccc(F)cc3F)on2)C1 [Example 1.016]
5 to 100 | COC1CCC(N2CC(CC(=O)NC(C)(C)c3ccccn3)(NC(=O)c3cc(-c4ccc(F)cc4F)on3)C2)CC1 (centres unmarked) [Example 1.299]
